In PubChem BioAssay (NCI):
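Each compound was tested at five concentrations against cells in 96-well plates for 48 hours. TGI: total growth inhibition.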

Tests used:
Assay in all cases: inhibition of tumour cell growth, NCI panel, 48 h
MALME-3M melanoma = tested on: MALME-3M melanoma
IGROV1 ovarian = tested on: IGROV1 ovarian
SN12C renal = tested on: SN12C renal
OVCAR-5 ovarian = tested on: OVCAR-5 ovarian
UACC-257 melanoma = tested on: UACC-257 melanoma
SF-539 CNS = tested on: SF-539 CNS
NCI-H226 lung = tested on: NCI-H226 lung
HL-60(TB) leukemia = tested on: HL-60(TB) leukemia
K-562 leukemia = tested on: K-562 leukemia
U251 CNS = tested on: U251 CNS
T-47D breast = tested on: T-47D breast
MOLT-4 leukemia = tested on: MOLT-4 leukemia
SNB-19 CNS = tested on: SNB-19 CNS
SK-OV-3 ovarian = tested on: SK-OV-3 ovarian
ACHN renal = tested on: ACHN renal
UACC-62 melanoma = tested on: UACC-62 melanoma
NCI-H23 lung = tested on: NCI-H23 lung
HCT-116 colon = tested on: HCT-116 colon
BT-549 breast = tested on: BT-549 breast
A498 renal = tested on: A498 renal
SF-295 CNS = tested on: SF-295 CNS
NCI-H522 lung = tested on: NCI-H522 lung
DU-145 prostate = tested on: DU-145 prostate
HCC-2998 colon = tested on: HCC-2998 colon
OVCAR-4 ovarian = tested on: OVCAR-4 ovarian
RXF 393 renal = tested on: RXF 393 renal
NCI/ADR-RES ovarian = tested on: NCI/ADR-RES ovarian
HOP-62 NSCLC = tested on: HOP-62 NSCLC
M14 melanoma = tested on: M14 melanoma
HCT-15 colon = tested on: HCT-15 colon
786-0 renal = tested on: 786-0 renal
LOX IMVI melanoma = tested on: LOX IMVI melanoma
HT29 colon = tested on: HT29 colon
MDA-MB-435 = tested on: MDA-MB-435
COLO 205 colon = tested on: COLO 205 colon
SK-MEL-5 melanoma = tested on: SK-MEL-5 melanoma
SR leukemia = tested on: SR leukemia
MDA-MB-231 breast = tested on: MDA-MB-231 breast
PC-3 prostate = tested on: PC-3 prostate
SNB-75 CNS = tested on: SNB-75 CNS
MDA-N = tested on: MDA-N
SF-268 CNS = tested on: SF-268 CNS
OVCAR-8 ovarian = tested on: OVCAR-8 ovarian
UO-31 renal = tested on: UO-31 renal
SK-MEL-2 melanoma = tested on: SK-MEL-2 melanoma
SK-MEL-28 melanoma = tested on: SK-MEL-28 melanoma
MCF7 breast = tested on: MCF7 breast
NCI-H460 lung = tested on: NCI-H460 lung
A549 NSCLC = tested on: A549 NSCLC
KM12 colon = tested on: KM12 colon
SW-620 colon = tested on: SW-620 colon
RPMI-8226 leukemia = tested on: RPMI-8226 leukemia
HS 578T breast = tested on: HS 578T breast
TK-10 renal = tested on: TK-10 renal
CCRF-CEM leukemia = tested on: CCRF-CEM leukemia
OVCAR-3 ovarian = tested on: OVCAR-3 ovarian
EKVX NSCLC = tested on: EKVX NSCLC
HOP-92 NSCLC = tested on: HOP-92 NSCLC

Structure (SMILES): Cc1nc(-c2ccc(N=Cc3ccc(N(CCOS(C)(=O)=O)CCOS(C)(=O)=O)cc3C)cc2)cs1
- TGI (MALME-3M melanoma): > 100 µM
- TGI (IGROV1 ovarian): > 100 µM
- TGI (SN12C renal): > 100 µM
- TGI (OVCAR-5 ovarian): > 100 µM
- TGI (UACC-257 melanoma): > 100 µM
- TGI (SF-539 CNS): 8.84 µM
- TGI (NCI-H226 lung): 28.3 µM
- TGI (HL-60(TB) leukemia): 47.3 µM
- TGI (K-562 leukemia): > 100 µM
- TGI (U251 CNS): > 100 µM
- TGI (T-47D breast): 90.2 µM
- TGI (MOLT-4 leukemia): > 100 µM
- TGI (SNB-19 CNS): > 100 µM
- TGI (SK-OV-3 ovarian): > 100 µM
- TGI (ACHN renal): 19.2 µM
- TGI (UACC-62 melanoma): > 100 µM
- TGI (NCI-H23 lung): > 100 µM
- TGI (HCT-116 colon): > 100 µM
- TGI (BT-549 breast): > 100 µM
- TGI (A498 renal): 11.4 µM
- TGI (SF-295 CNS): > 100 µM
- TGI (NCI-H522 lung): > 100 µM
- TGI (DU-145 prostate): > 100 µM
- TGI (HCC-2998 colon): > 100 µM
- TGI (OVCAR-4 ovarian): > 100 µM
- TGI (RXF 393 renal): 53.9 µM
- TGI (NCI/ADR-RES ovarian): > 100 µM
- TGI (HOP-62 NSCLC): > 100 µM
- TGI (M14 melanoma): > 100 µM
- TGI (HCT-15 colon): > 100 µM
- TGI (786-0 renal): 47.5 µM
- TGI (LOX IMVI melanoma): > 100 µM
- TGI (HT29 colon): > 100 µM
- TGI (MDA-MB-435): > 100 µM
- TGI (COLO 205 colon): > 100 µM
- TGI (SK-MEL-5 melanoma): 38.5 µM
- TGI (SR leukemia): > 100 µM
- TGI (MDA-MB-231 breast): > 100 µM
- TGI (PC-3 prostate): > 100 µM
- TGI (SNB-75 CNS): > 100 µM
- TGI (MDA-N): > 100 µM
- TGI (SF-268 CNS): 40.2 µM
- TGI (OVCAR-8 ovarian): > 100 µM
- TGI (UO-31 renal): 62 µM
- TGI (SK-MEL-2 melanoma): > 100 µM
- TGI (SK-MEL-28 melanoma): > 100 µM
- TGI (MCF7 breast): 53.6 µM
- TGI (NCI-H460 lung): > 100 µM
- TGI (A549 NSCLC): > 100 µM
- TGI (KM12 colon): > 100 µM
- TGI (SW-620 colon): > 100 µM
- TGI (RPMI-8226 leukemia): > 100 µM
- TGI (HS 578T breast): > 100 µM
- TGI (TK-10 renal): > 100 µM
- TGI (CCRF-CEM leukemia): > 100 µM
- TGI (OVCAR-3 ovarian): > 100 µM

Structure (SMILES): CC(C)CN=C(N)N=C(N)N
- TGI (MALME-3M melanoma): > 100 µM
- TGI (IGROV1 ovarian): > 100 µM
- TGI (SN12C renal): > 100 µM
- TGI (OVCAR-5 ovarian): > 100 µM
- TGI (UACC-257 melanoma): > 100 µM
- TGI (EKVX NSCLC): > 100 µM
- TGI (SF-539 CNS): > 100 µM
- TGI (NCI-H226 lung): > 100 µM
- TGI (HL-60(TB) leukemia): > 100 µM
- TGI (K-562 leukemia): > 100 µM
- TGI (U251 CNS): > 100 µM
- TGI (T-47D breast): > 100 µM
- TGI (MOLT-4 leukemia): > 100 µM
- TGI (SNB-19 CNS): > 100 µM
- TGI (SK-OV-3 ovarian): > 100 µM
- TGI (ACHN renal): > 100 µM
- TGI (UACC-62 melanoma): > 100 µM
- TGI (NCI-H23 lung): > 100 µM
- TGI (HCT-116 colon): > 100 µM
- TGI (BT-549 breast): > 100 µM
- TGI (SF-295 CNS): > 100 µM
- TGI (NCI-H522 lung): > 100 µM
- TGI (DU-145 prostate): > 100 µM
- TGI (HCC-2998 colon): > 100 µM
- TGI (OVCAR-4 ovarian): > 100 µM
- TGI (RXF 393 renal): > 100 µM
- TGI (NCI/ADR-RES ovarian): > 100 µM
- TGI (HOP-62 NSCLC): > 100 µM
- TGI (M14 melanoma): > 100 µM
- TGI (HCT-15 colon): > 100 µM
- TGI (786-0 renal): > 100 µM
- TGI (LOX IMVI melanoma): > 100 µM
- TGI (HT29 colon): > 100 µM
- TGI (MDA-MB-435): > 100 µM
- TGI (COLO 205 colon): > 100 µM
- TGI (SK-MEL-5 melanoma): > 100 µM
- TGI (SR leukemia): > 100 µM
- TGI (MDA-MB-231 breast): > 100 µM
- TGI (PC-3 prostate): > 100 µM
- TGI (SNB-75 CNS): > 100 µM
- TGI (MDA-N): > 100 µM
- TGI (SF-268 CNS): > 100 µM
- TGI (OVCAR-8 ovarian): > 100 µM
- TGI (UO-31 renal): > 100 µM
- TGI (SK-MEL-2 melanoma): > 100 µM
- TGI (SK-MEL-28 melanoma): > 100 µM
- TGI (MCF7 breast): > 100 µM
- TGI (NCI-H460 lung): > 100 µM
- TGI (A549 NSCLC): > 100 µM
- TGI (KM12 colon): > 100 µM
- TGI (SW-620 colon): > 100 µM
- TGI (RPMI-8226 leukemia): > 100 µM
- TGI (HS 578T breast): > 100 µM
- TGI (TK-10 renal): > 100 µM
- TGI (HOP-92 NSCLC): > 100 µM
- TGI (OVCAR-3 ovarian): > 100 µM
